13 compounds from patent publication USRE46095E1, “Herbicidal compositions” (BAYER CROPSCIENCE AG, priority 2008, dated 2016) can be followed below.

Holding throughout (type): in vivo
The subject of test [1] is Geranium dissectum. The experiment in a line: Pre-emergence herbicidal action, pot trial/greenhouse (Example 5.3, Table 6). The note with it: 672 h, read-out: Herbicidal action [%] against Geranium dissectum; for pest or weed control at 50 g/ha: 50 g of AS/ha. From the text:
(§1) Seeds or rhizome pieces of monocotyledonous and dicotyledonous harmful plants are placed in sandy loam in pots and covered with soil. The compositions, formulated as concentrated aqueous solutions, wettable powders or emulsion concentrates, are then applied to the surface of the covering soil as an aqueous solution, suspension or emulsion at an application rate of 300 to 800I of water/ha (converted) in a variety of dosages. After the treatment, the pots are placed in a green-house and kept under good growth conditions for the weeds. Visual scoring of plant or emergence damage is carried out after the test plants have emerged after an experimental period of 3 to 4 weeks in comparison with untreated controls.
(§2) The herbicidal efficacy of the active compounds or active compound mixtures was scored visually by comparing the treated pots (soil) with untreated controls. The damage and development of all above-ground plant parts was recorded. Scoring was done on a percentage scale (example values: 100% action=all plants dead or not emerged; 50% action=50% of the plants and green plant parts dead or not emerged; 0% action=no discernible action=like control plot). The score figures of in any case 2 repetitions (pots) were averaged.
(§3) When the data observed already exceed the formal total of the data in the experiments with individual applications, they likewise exceed the expected value according to Colby, which is calculated using the formula below and is likewise regarded as an indication of synergism (cf. S. R. Colby; in Weeds 15 (1967) pp. 20 to 22): E=A+B−(A·B/100)
(§4) In this formula: • A=action of active compound (A) in % at an application rate of a g of AS/ha; • B=action of active compound (B) in % at an application rate of b g of AS/ha; • E=expected value of the action of the combination (A)+(B) in % at the combined application rate a+b g of AS/ha.
(§5) The following abbreviations are used in the description and the tables below: • g of AS/ha=grams of active substance (=100% active compound) per hectare; • the total of the activities of the individual applications is given as E^A; • the expected values according to Colby are in each case given as E^C; Example 5.1
(§6) Certain combinations were tested for their herbicidal activity in accordance with the general example 1 (pre-emergence method).

For test [2], the system named is Erodium cicutarium. The experiment in a line: Pre-emergence herbicidal action, pot trials/greenhouse (Example 5.2, Table 5). The note with it: evaluation 28 days after treatment.
Source text: as §1, §2, §3, §4, §5, §6

Test [3] deals with Ipomoea hederifolia. The experiment in a line: Pre-emergence herbicidal action, pot trials/greenhouse (Example 5.1, Table 4). The note with it: evaluation 27 days after treatment.
Source text: as §1, §2, §3, §4, §5, §6

The mark [4] stands for this setting: pot trial/greenhouse, evaluation 28 days after treatment.

Structures can show the parent of a compound that is named as a salt.

For the compound `Nc1nc(C2CC2)nc(C(=O)O)c1Cl` [(B2.6.1), 6-amino-5-chloro-2-cyclopropylpyrimidine-4-carboxylic acid], the pest or weed control at 100 g/ha in test [1] (100 g of AS/ha, pot trial/greenhouse, evaluation 28 days after treatment) was found to be 65%.

Turning to `COCCOCc1nc(C(F)(F)F)ccc1C(=O)C1=C(O)C2CCC(C2)C1=O` (stereo not shown) [(B1.6.1), 4-hydroxy-3-[[2-[(2-methoxyethoxy)methyl]-6-trifluoromethyl-3-pyridinyl]carbonyl]-bicyclo[3.2.1]oct-3-en-2-one], the “Herbicidal action [%] against Erodium cicutarium” value in test [2] (30 g of AS/ha) came to 55%.

As for `Cc1ccc2c(c1)[C@H](Nc1nc(N)nc([C@@H](C)F)n1)[C@@H](C)C2` [(A21), 2-amino-4-[(1R,2S)-2,6-dimethyl-indan-1-ylamino]-6-[(1R)-1-fluoroethyl]-1,3,5-triazine], in test [1] (0.3 g of AS/ha, pot trial/greenhouse, evaluation 28 days after treatment), the pest or weed control at 0.3 g/ha turned out to be 5%. The pest or weed control at 1.2 g/ha in test [1] (1.2 g of AS/ha, pot trial/greenhouse, evaluation 28 days after treatment) stood at 20%. Further, the “Herbicidal action [%] against Ipomoea hederifolia” value is 0% in test [3] (0.2 g of AS/ha) and 45% in test [3] (0.5 g of AS/ha). In addition, the “Herbicidal action [%] against Erodium cicutarium” value in test [2] (0.2 g of AS/ha) is given as 0%; in test [2] (0.8 g of AS/ha) it was 25%.

With `Cn1nc(C(F)(F)F)c(CS(=O)(=O)C2=NOC(C)(C)C2)c1OC(F)F` [(B3.1), 3-[5-(difluoromethoxy)-1-methyl-3-(trifluoromethyl)pyrazol-4-ylmethylsulfonyl]-4,5-dihydro-5,5-dimethyl-1,2-oxazole], the pest or weed control at 50 g/ha in test [1] (setting [4]) was 50%.

For `CS(=O)(=O)c1ccc(C(=O)C2C(=O)CCCC2=O)c(Cl)c1COCC(F)(F)F` [(B1.2.1), 2-{2-chloro-4-mesyl-3-[(2,2,2-trifluoroethoxy)methyl]benzoyl}cyclohexane-1,3-dione], the “Herbicidal action [%] against Erodium cicutarium” value in test [2] (50 g of AS/ha) came to 30%.

Regarding `CC(C)N(C)S(=O)(=O)NC(=O)c1cc(-n2c(=O)cc(C(F)(F)F)n(C)c2=O)c(F)cc1Cl` [(B2.3.1), 2-chloro-5-[3,6-dihydro-3-methyl-2,6-dioxo-4-(trifluoromethyl)-1 (2H)-pyrimidinyl]-4-fluoro-N-[[methyl(1-methylethyl)amino]sulfonyl]benzamide], the pest or weed control at 50 g/ha in test [1] (setting [4]) stood at 65%.

For `COc1cc(OC)n2nc(NS(=O)(=O)c3c(C(F)(F)F)ccnc3OC)nc2n1` [(B1.4.1), N-(5,7-dimethoxy[1,2,4]triazolo[1,5-a]pyrimidin-2-yl)-2-methoxy-4-(trifluoromethyl)pyridine-3-sulfonamide], the “Herbicidal action [%] against Erodium cicutarium” value in test [2] (5 g of AS/ha) amounted to 50%.

On to `CCOC1Oc2ccc(OS(C)(=O)=O)cc2C1(C)C` (racemic) [(B2.5), (RS)—O-(2-ethoxy-2,3-dihydro-3,3-dimethylbenzofuran-5-yl)methanesulfonate], for which the pest or weed control at 300 g/ha in test [1] (300 g of AS/ha, pot trial/greenhouse, evaluation 28 days after treatment) was 35%.

As for `Nc1cc(Cl)nc(C(=O)O)c1Cl` [(B2.4.1), 4-amino-3,6-dichloropyridine-2-carboxylic acid], in test [1] (75 g of AS/ha, pot trial/greenhouse, evaluation 28 days after treatment), the pest or weed control at 75 g/ha is 50%.

Consider `CCOC(=O)COc1ncccc1Oc1cc(-n2c(=O)cc(C(F)(F)F)n(C)c2=O)c(F)cc1Cl` [(B1.3), ethyl [[3-[2-chloro-5-[3,6-dihydro-3-methyl-2,6-dioxo-4-(trifluoromethyl)-1(2H)-pyrimidinyl]-4-fluorophenoxy]-2-pyridinyl]oxy]acetate], for which the “Herbicidal action [%] against Erodium cicutarium” value in test [2] (15 g of AS/ha) is 65%.

In the case of `Cc1nn(C)c(O)c1C(=O)c1ccc(C(F)(F)F)cc1S(C)(=O)=O` [(B2.1.1), (5-hydroxy-1,3-dimethyl-1H-pyrazol-4-yl)-[2-(methylsulfonyl)-4-(trifluoromethyl)-phenyl]methanone], the pest or weed control at 30 g/ha in test [1] (30 g of AS/ha, pot trial/greenhouse, evaluation 28 days after treatment) is 20%.

Turning to `COc1cc(OC)nc(NC(=O)NS(=O)(=O)c2ncccc2OCC(F)(F)F)n1` [(B2.2.2), 1-(4,6-dimethoxypyrimidin-2-yl)-3-[3-(2,2,2-trifluoroethoxy)-2-pyridylsulfonyl]urea sodium salt], the pest or weed control at 25 g/ha in test [1] was found to be 45%.

Regarding `COC(=O)c1csc(C)c1S(=O)(=O)NC(=O)n1nc(OC)n(C)c1=O` [(B1.1.2), methyl 4-[(4,5-dihydro-3-methoxy-4-methyl-5-oxo-1H-1,2,4-triazol-1-yl)carbonylsulfamoyl]-5-methylthiophene-3-carboxylate], the “Herbicidal action [%] against Ipomoea hederifolia” value was 5% in test [3] (0.5 g of AS/ha) and 50% in test [3] (2.0 g of AS/ha).
